# Results: PMC5500849, “Cobamide-mediated enzymatic reductive dehalogenation via long-range electron transfer” (Nature Communications, 2017)
# Columns and labels:
# PceA (PceA–Strep) [1] = target: T1, PceA (PceA–Strep) (Sulfurospirillum multivorans, UniProt O68252); experiment: inhibition of 4-BP dehalogenation; type: biochemical; settings: 47 nM enzyme, dark 2 min; covalent, alkylates cobamide [Co(I)], reversed by light
# T1 construct: C-terminal Strep-tag II, homologously produced in S. multivorans GD21 (genomic pceAB), Strep-Tactin purified; crystals from mature enzyme (Tat signal peptide removed); holo with norpseudo-B12 and two [4Fe-4S] clusters
# PceA (PceA–Strep) [2] = target: T1, PceA (PceA–Strep); experiment: crystal structure, soaked crystal; type: binding; settings: [Co(II)] state
# T1 sequence (O68252 38-501): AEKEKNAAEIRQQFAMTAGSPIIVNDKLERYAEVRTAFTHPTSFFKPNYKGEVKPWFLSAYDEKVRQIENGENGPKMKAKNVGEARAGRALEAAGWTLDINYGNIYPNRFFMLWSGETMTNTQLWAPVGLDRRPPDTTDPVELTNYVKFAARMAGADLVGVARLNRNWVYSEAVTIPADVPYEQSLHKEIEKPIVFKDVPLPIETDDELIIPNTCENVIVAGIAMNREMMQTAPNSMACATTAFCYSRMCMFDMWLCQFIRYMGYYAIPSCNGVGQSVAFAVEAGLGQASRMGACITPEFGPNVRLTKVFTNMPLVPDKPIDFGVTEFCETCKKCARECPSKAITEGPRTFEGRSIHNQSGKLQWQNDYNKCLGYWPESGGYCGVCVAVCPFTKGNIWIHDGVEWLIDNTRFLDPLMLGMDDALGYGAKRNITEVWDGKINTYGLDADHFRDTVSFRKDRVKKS
smiles,measurement,setting,value
CCCI [propyl iodide],complete inhibition at 100 μM,PceA (PceA–Strep) [1],complete inhibition of the PceA-mediated 4-BP dehalogenation by propyl iodide in the dark
Oc1ccc(Cl)cc1 [4-CP],"crystal structure, soaked crystal","PceA (PceA–Strep) [2]; active site, not dehalogenated",5M8W (4-CP)
Oc1cccc(Br)c1 [3-BP],"crystal structure, soaked crystal",PceA (PceA–Strep) [2]; enzyme with methoxybenzimidazolyl-norcobamide instead of norpseudo-B12,5MAA (3-BP)
Oc1ccc(I)cc1 [4-IP],"crystal structure, soaked crystal","PceA (PceA–Strep) [2]; active site, also surface groove site",5MA2 (4-IP)
Oc1cccc(Cl)c1 [3-CP],"crystal structure, soaked crystal","PceA (PceA–Strep) [2]; active site, not dehalogenated",5M8Y (3-CP)
